According to the NIST ThermoML archive (doi:10.1016/j.jct.2018.04.009):

Columns and labels:
[1] = Crystal; Adiabatic calorimetry
[2] = Molar enthalpy of transition or fusion; settings: Crystal; Adiabatic calorimetry
[3] = molar heat capacity at constant pressure; settings: 101.33 kPa, Small (less than 1 g) adiabatic calorimetry

c1ccc(Oc2ccccc2)cc1 [diphenyl ether]
Settings	Molar enthalpy of transition or fusion [kcal/mol]	Triple point temperature [K]
[1]	–	299.96
[2]	4.092	–

[3]
Settings	molar heat capacity at constant pressure [J/K/mol]
282.08 K, Crystal	202.2
283.34 K, Crystal	202.92
285.84 K, Crystal	203.66
287.09 K, Crystal	205.43
288.33 K, Crystal	206.1
289.59 K, Crystal	207.25
290.84 K, Crystal	208.01
292.1 K, Crystal	209.17
321.46 K, Liquid	276.46
323.17 K, Liquid	278.21
324.89 K, Liquid	278.93
326.63 K, Liquid	279.41
328.37 K, Liquid	279.66
330.1 K, Liquid	280.76
331.85 K, Liquid	281.87
333.61 K, Liquid	282.69
335.38 K, Liquid	283.24
